According to US20150233930A1, “METHODS AND COMPOSITIONS EMPLOYING SECRETED PROTEINS THAT REFLECT AUTOPHAGY DYNAMICS WITHIN TUMOR CELLS” (The Wistar Institute of Anatomy and Biology, priority 2014, published 2015):

Experiments:
[1] = system: 1205Lu cells; test: LC3 immunoblotting of lysates from cells treated with rapamycin or hydroxychloroquine; assay type: cell-based, human; details: 1205Lu cells compared to WM793 cells
Protocol: Melanoma cell lines […] and 1205Lu (as well as other cell lines identified in the appropriate figures) were maintained in RPMI 1640 (Invitrogen) supplemented with 10% fetal bovine serum (Sigma), 50 μg/mL gentamicin, and 25 mmol/L HEPES in the presence of 5% CO2 at 37° C. The 3D spheroid cultures were prepared as previously described^1 and cell death was evaluated using the Live/Dead Assay (Invitrogen). Electron microscopy was performed as previously described^1. Immunoblotting was performed on whole cell lysates as previously described. A commercially available polyclonal antibody against actin (I-19) was used (Santa Cruz). A polyclonal antibody against LC3 that was produced by QCB Biologicals was used. Band densities from Western Blots were quantified using Adobe Photoshop CS4 Extended.
The genetically paired melanoma cell lines, WM793 and 1205Lu, were used for initial secretome comparisons due to the inherent genetic heterogeneity across unrelated melanoma cell lines. The 1205Lu cell line is a subclone derived from the lung metastasis of WM793 in athymic mice, thus minimizing protein expression changes caused by genetic differences^14. To determine autophagic capacity in these paired cell lines, electron microscopy of WM793 and 1205Lu grown in complete medium was used to quantify AVs (FIG. 1A). […]

[2] = system: tumor cells; details: preclinical models of melanoma; cited from earlier work

CCN(CCO)CCCC(C)Nc1ccnc2cc(Cl)ccc12 (centres unmarked) [hydroxychloroquine]
LC3II/LC3I ratio [1]: increases | effect on cytotoxic effects of alkylating agents [2]: augment the cytotoxic effects of alkylating agents
